Source: US20180311611A1, “ABSORBENT FOR THE SELECTIVE REMOVAL OF HYDROGEN SULFIDE” (BASF SE, priority 2015, published 2018)
Like-named read-outs stand apart in the source and are kept apart here.

How the values were obtained:
[1] = pKA determination of amines by pH at half-equivalence with hydrochloric acid; conditions: for pKA (120° C.) / pKA (50° C.): aqueous solution, amine 0.01 mol/kg; for ΔpKA (120 − 50° C.): difference between 120° C. and 50° C.
Excerpt: (§1) The pKA values are suitably determined in aqueous solution with an amine concentration of 0.01 mol/kg at the given temperature by determining the pH at the point of half-equivalence of the dissociation stage under consideration by means of addition of hydrochloric acid (1st dissociation stage 0.005 mol/kg; 2nd dissociation stage: 0.015 mol/kg; 3rd dissociation stage: 0.025 mol/kg). Measurement is accomplished using a thermostated closed jacketed vessel in which the liquid was blanketed with nitrogen. The Hamilton Polylite Plus 120 pH electrode was used, which was calibrated with pH 7 and pH 12 buffer solutions.

Excerpt for physchem: as §1

Row | Compound | pKa (physchem; aqueous solution of the amine) | pKA (120° C.) ([1]; dissociation stage pKA1) | ΔpKA (120 − 50° C.) ([1]; dissociation stage pKA1) | pKA (50° C.) ([1]; dissociation stage pKA2) | pKA (120° C.) ([1]; dissociation stage pKA2) | ΔpKA (120 − 50° C.) ([1]; dissociation stage pKA2) | pKa (physchem) | pKA (50° C.) ([1]; dissociation stage pKA3) | pKA (120° C.) ([1]; dissociation stage pKA3) | ΔpKA (120 − 50° C.) ([1]; dissociation stage pKA3) | pKA (50° C.) ([1]; dissociation stage pKA1)
1 | CN(C)C1CCC(N(C)C)CC1 (stereo not shown) [1,4-Bis(dimethylamino)cyclohexane] | 9.8 | 8.17 | 1.63 | 8.01 | 6.67 | 1.34 |  |  |  |  | 
2 | CN(C)C1CCCCC1 [Cyclohexyl-N,N-dimethylamine] |  |  |  |  |  |  | 10 |  |  |  | 
3 | CN(C)CCCN(CCO)CCCN(C)C [Hydroxyethylbis(dimethylaminopropyl)amine] | 10.1 | 8.63 | 1.51 | 10.13 | 8.62 | 1.51 |  | 10.12 | 8.69 | 1.43 | 
4 | CN(C)CCCN1CN(CCCN(C)C)CN(CCCN(C)C)C1 [N,N,N′,N′,N″,N″-Hexamethyl-1,3,5-triazine-1,3,5(2H,4H,6H)-tripropanamine] | 11.2 | 9.78 | 1.59 |  | 9.35 | 1.88 |  | 10.45 | 7.97 | 2.48 | 11.37
